A word on the IC50: it is the concentration that gives 50% inhibition. Usually GI50 stands for the concentration that inhibits growth by half.

Where two headings read alike, the source gives them in different places. Where only a bound is given, the exact number is not on record here.

The target in test [1] is T1, menin-MLL interaction (Menin MLL 4-43) (Homo sapiens, UniProt O00255).
T1 sequence (O00255 1-610): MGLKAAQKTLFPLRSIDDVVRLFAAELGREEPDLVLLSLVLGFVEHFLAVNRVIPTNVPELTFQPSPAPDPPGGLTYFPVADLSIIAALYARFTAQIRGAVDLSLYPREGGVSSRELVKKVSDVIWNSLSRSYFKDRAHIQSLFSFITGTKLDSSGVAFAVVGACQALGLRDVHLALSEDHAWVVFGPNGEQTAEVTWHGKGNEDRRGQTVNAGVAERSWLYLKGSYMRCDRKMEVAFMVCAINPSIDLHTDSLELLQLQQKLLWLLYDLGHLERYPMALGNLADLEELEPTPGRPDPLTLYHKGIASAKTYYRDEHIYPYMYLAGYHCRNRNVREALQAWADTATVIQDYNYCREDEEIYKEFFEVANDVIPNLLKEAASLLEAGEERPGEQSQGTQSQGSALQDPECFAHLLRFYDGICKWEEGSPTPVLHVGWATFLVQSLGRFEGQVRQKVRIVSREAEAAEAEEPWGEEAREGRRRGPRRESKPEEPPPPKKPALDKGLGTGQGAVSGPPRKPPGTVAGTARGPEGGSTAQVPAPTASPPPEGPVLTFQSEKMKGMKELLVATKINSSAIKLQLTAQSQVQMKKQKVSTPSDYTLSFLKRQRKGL
The test can be described thus: Fluorescence polarization (FP) competition assay. It counts as binding. For orientation: In fluorescence polarisation assays a small probe gives low polarisation when free and higher when bound to something large.

In test [2] the test system is MV4;11 (human leukemia) tumor. Put plainly: Efficacy study in mouse xenograft tumor model. It counts as in vivo. Conditions: female nude mice, subcutaneous MV4;11, oral gavage 150 mg/kg bid. The procedure:
Immunocompromised 8-10 week-old female nude (nu/nu) mice were used for in vivo efficacy studies in accordance with IACUC guidelines. Human MV4;11 leukemia cells available from ATCC were implanted subcutaneously into female nude mice (5×10^6 cells/mouse). When the tumor reached a size of approximately 150 to 250 mm^3, the tumor-bearing mice were randomly assigned to a vehicle control or a compound treatment group (8 mice per group). Mice in the treatment group were administered a compound of the present disclosure by oral gavage (150 mg/kg, bid). Subcutaneous tumor volume and mouse body weight were measured twice weekly. Tumor volumes were calculated by measuring two perpendicular diameters with calipers (V=(length×width^2)/2). […] As used in the Examples and Figures herein, Compound B refers to Compound 82 in Table 1.

The subject of another test is MV4;11 cells. The test can be described thus: MTT cell proliferation assay. Type of test: cell-based. The following applies: Homo sapiens. The procedure:
The ability of a compound of the present disclosure to inhibit the growth of cells was tested in MLL leukemia cell lines (e.g., MV4;11) using the MTT cell proliferation assay (ATCC® 30-1010K). […] Cells were plated at about 1×10^5 cells per well in a 96-well plate. A compound of the present disclosure was added at a concentration up to about 2 μM with seven, 2-fold serial dilutions for each compound. Cells were incubated at 37° C. for 72 hours, then cells in the control wells were counted. Media was changed to restore viable cell numbers to the original concentration, and compounds were re-supplied. Proliferation was measured 96 hours later using MTT reagents, as per kit instructions. […] As used in the Examples and Figures herein, Compound A refers to Compound 3 in Table 1.

[3] abbreviates: fluorescence polarization assay, read-out: Menin MLL 4-43 IC50.
Setting [4] is: measured in accordance with Example 8, read-out: IC50 value (ability of the compound to disrupt the menin-MLL interaction).

Regarding `CCC(=O)NC12CC(Cn3c(C#N)cc4c(C)c(CN5CCC(Nc6ncnc7sc(CC(F)(F)F)cc67)CC5)ccc43)(C1)C2` [Compound 3], the IC50 in test [1] (setting [3]) was 50 to 250 nM; in test [1] (setting [4]), ≤ 50 nM. Moreover, the “MV4;11 tumor growth (tumor volume) relative to vehicle control” value in test [2] was “inhibited tumor growth and induced tumor regression”. In addition, growth with MV4;11 cells was halved (GI50) at 40 nM.

In the case of `CC[C@@H](NC)C(=O)NC12CC(Cn3c(C#N)cc4c(C)c(CN5CCC(Nc6ncnc7sc(CC(F)(F)F)cc67)CC5)ccc43)(C1)C2` [Compound 70], the IC50 in test [1] (setting [3]) is < 50 nM.

As to `CC[C@@H](N)C(=O)NC12CC(Cn3c(C#N)cc4c(C)c(CN5CCC(Nc6ncnc7sc(CC(F)(F)F)cc67)CC5)ccc43)(C1)C2` [Compound 71], the IC50 in test [1] (setting [3]) was < 50 nM.

Consider `CCCCC(N)C(=O)NC12CC(Cn3c(C#N)cc4c(C)c(CN5CCC(Nc6ncnc7sc(CC(F)(F)F)cc67)CC5)ccc43)(C1)C2` (stereo not shown) [Compound 72], for which the IC50 in test [1] (setting [3]) was in the range of 50 to 250 nM.

`CCCCC(NC)C(=O)NC12CC(Cn3c(C#N)cc4c(C)c(CN5CCC(Nc6ncnc7sc(CC(F)(F)F)cc67)CC5)ccc43)(C1)C2` (stereo not shown) [Compound 73]: the IC50 in test [1] (setting [3]) was in the range of 50 to 250 nM.

Regarding `Cc1c(CN2CCC(Nc3ncnc4sc(CC(F)(F)F)cc34)CC2)ccc2c1cc(C#N)n2CC12CC(NC(=O)C(N)CC(F)(F)F)(C1)C2` (stereo not shown) [Compound 74], the IC50 in test [1] (setting [3]) was in the range of 250 to 1000 nM.

Turning to `CCC(=O)NC12CC(Cn3c(C#N)cc4cc(CN5CCC(Nc6ncnc7sc(CC(F)(F)F)cc67)CC5)c(O)cc43)(C1)C2` [Compound 75], in test [1] (setting [3]), the IC50 is 50 to 250 nM.

For `CNC(CO)C(=O)NC12CC(Cn3c(C#N)cc4c(C)c(CN5CCC(Nc6ncnc7sc(CC(F)(F)F)cc67)CC5)ccc43)(C1)C2` (stereo not shown) [Compound 76], the IC50 in test [1] (setting [3]) is < 50 nM.

Regarding `Cc1c(CN2CCC(Nc3ncnc4sc(CC(F)(F)F)cc34)CC2)ccc2c1cc(C#N)n2CC12CC(NC(=O)Cc3ccccc3)(C1)C2` [Compound 77], in test [1] (setting [3]), the IC50 fell in the range of 250 to 1000 nM.

Take `Cc1c(CN2CCC(Nc3ncnc4sc(CC(F)(F)F)cc34)CC2)ccc2c1cc(C#N)n2CC12CC(NC(=O)Cc3cccc(N)c3)(C1)C2` [Compound 78]: the 50% inhibitory concentration (IC50) in test [1] (setting [3]) is 250 to 1000 nM.

For the compound `CNc1nc(NC2CCN(Cc3ccc4c(cc(C#N)n4CC45CC(NC(=O)Cc6cccc(N)c6)(C4)C5)c3C)CC2)c2cc(CC(F)(F)F)sc2n1` [Compound 79], the IC50 in test [1] (setting [3]) was < 50 nM.

Consider `CNc1nc(NC2CCN(Cc3ccc4c(cc(C#N)n4CC45CC(NC(=O)Cc6ccccc6N)(C4)C5)c3C)CC2)c2cc(CC(F)(F)F)sc2n1` [Compound 80], for which the IC50 in test [1] (setting [3]) is < 50 nM.

With `CNc1nc(NC2CCN(Cc3ccc4c(cc(C#N)n4CC45CC(NC(C)=O)(C4)C5)c3C)CC2)c2cc(CC(F)(F)F)sc2n1` [Compound 82], the 50% inhibitory concentration (IC50) was < 50 nM in test [1] (setting [3]) and ≤ 50 nM in test [1] (setting [4]). In addition, the “MV4;11 tumor growth (tumor volume) relative to vehicle control” value in test [2] is “inhibited tumor growth and induced tumor regression”.

As to `Cc1nc(NC2CCN(Cc3ccc4c(cc(C#N)n4CC45CC(NC=O)(C4)C5)c3C)CC2)c2cc(CC(F)(F)F)sc2n1` [Compound 83], the IC50 in test [1] (setting [3]) was < 50 nM.

For `CC(=O)NC12CC(Cn3c(C#N)cc4c(C)c(CN5CCC(Nc6nc(C)nc7sc(CC(F)(F)F)cc67)CC5)ccc43)(C1)C2` [Compound 84], in test [1] (setting [3]), the IC50 was < 50 nM.

In the case of `CNc1nc(NC2CCN(Cc3ccc4c(cc(C#N)n4CC45CC(NC=O)(C4)C5)c3C)CC2)c2cc(CC(F)(F)F)sc2n1` [Compound 85], the IC50 in test [1] (setting [3]) was < 50 nM.

Consider `CCC(=O)NC12CC(Cn3c(C#N)cc4c(C)c(CN5CCC(Nc6nc(NC)nc7sc(CC(F)(F)F)cc67)CC5)ccc43)(C1)C2` [Compound 86], for which, in test [1] (setting [3]), the IC50 was < 50 nM.

Source of the values: patent US11555041B2, “Bridged bicyclic inhibitors of menin-MLL and methods of use” (Kura Oncology, Inc., priority 2016, dated 2023).
